Some test systems named below: HCC 2998; SK-MEL-5; HCT-15; SN12C; MCF7; COLO 205; MDA-MB-435; SK-MEL-28; A549; MDA-MB-231; UO-31; SW-620; OVCAR-8; LOX IMVI; MOLT-4; RXF 393; HL-60; SF-268; Hs-578T.
What all share (experiment): NCI anticancer screen, dose series, 48 h

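All cell lines were grown in 96-well plates and treated with compound for 48 hours. GI50 is the concentration that inhibits growth by half.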 Calls of active or inactive are those of the source. Cut-off read from the data, not from the text of the source: active = GI50 up to about 1.1 µM and inactive = higher.

Turning to `O=S(=O)(O)c1cc(Cl)c(O)c2ncc(Cl)cc12`, the GI50 in the assay on HCC 2998 was > 100 µM (inactive); in the assay on SK-MEL-5, 84.3 µM (inactive); in the assay with HCT-15 it was 41.7 µM; in the assay on SN12C, 64 µM (inactive); with MCF7, 51.8 µM (inactive); in the assay with COLO 205, > 100 µM (inactive). Further, the GI50 was > 100 µM (inactive) in the assay with MDA-MB-435; > 100 µM (inactive) with SK-MEL-28; 77.1 µM (inactive) with A549; > 100 µM (inactive) with MDA-MB-231; 57 µM (inactive) in the assay on UO-31; 56.8 µM (inactive) in the assay with SW-620. Moreover, the GI50 was 37.5 µM (inactive) with OVCAR-8, 31 µM (inactive) in the assay with LOX IMVI, 15.7 µM (inactive) in the assay on MOLT-4 and > 100 µM (inactive) in the assay on RXF 393.

`Cc1ccc(S(=O)(=O)Nn2c(O)c(C#N)c(-c3ccc([N+](=O)[O-])cc3)c(C#N)c2=O)cc1`: the GI50 with HCC 2998 was > 100 µM (inactive); in the assay with SK-MEL-5, > 100 µM (inactive); with HCT-15, above 100 µM; in the assay with SN12C, > 100 µM (inactive); with MCF7 it was > 100 µM (inactive); with COLO 205 it was > 100 µM (inactive). Also, the GI50 in the assay on MDA-MB-435, in the assay with SK-MEL-28, in the assay with A549, in the assay with HL-60, with MDA-MB-231 and with SW-620 was > 100 µM (inactive) throughout. The GI50 in the assay with SF-268, in the assay on OVCAR-8, in the assay on LOX IMVI, in the assay with MOLT-4 and with RXF 393 was > 100 µM (inactive) throughout.

For `N#C/C(=C/NC(=S)c1ccncc1)C(N)=O`, the GI50 was > 100 µM (inactive) with HCC 2998; > 100 µM (inactive) in the assay on SK-MEL-5; above 100 µM with HCT-15; > 100 µM (inactive) in the assay with SN12C; > 100 µM (inactive) in the assay with MCF7; > 100 µM (inactive) in the assay on COLO 205. For the same compound, the GI50 in the assay with MDA-MB-435, in the assay on SK-MEL-28, in the assay on A549, with HL-60, in the assay on MDA-MB-231 and in the assay on UO-31 was > 100 µM (inactive) each time. Besides, the GI50 in the assay on SW-620, with SF-268, in the assay on OVCAR-8, with LOX IMVI, with MOLT-4 and in the assay with RXF 393 was > 100 µM (inactive) throughout.

On to `COC(=O)C(C(=O)C(=O)Nc1cccc(OC)c1)c1cnc2ccccc2n1` (stereo not given), for which the GI50 in the assay on HCC 2998 is > 100 µM (inactive); in the assay on SK-MEL-5 it was > 100 µM (inactive); with HCT-15 it was above 100 µM; with SN12C it was > 100 µM (inactive); in the assay on COLO 205, > 100 µM (inactive); in the assay with SK-MEL-28 it was > 100 µM (inactive). For the same compound, the GI50 in the assay on A549 was 66.8 µM (inactive); with HL-60 it was > 100 µM (inactive); in the assay with UO-31, > 100 µM (inactive); with SW-620, > 100 µM (inactive); with SF-268, > 100 µM (inactive); in the assay with OVCAR-8, > 100 µM (inactive). Further, the GI50 in the assay with LOX IMVI is > 100 µM (inactive); in the assay with MOLT-4, > 100 µM (inactive); with RXF 393 it was 46.1 µM (inactive).

As for `N=NCC(=O)OC(COCc1ccccc1)COCc1ccccc1`, the GI50 in the assay on HCC 2998 is > 100 µM (inactive); in the assay with SK-MEL-5, 49.1 µM (inactive); with HCT-15, above 100 µM; in the assay with SN12C, 80.5 µM (inactive); in the assay with MCF7, 65 µM (inactive); with COLO 205, 96.4 µM (inactive). Further, the GI50 is > 100 µM (inactive) with MDA-MB-435; > 100 µM (inactive) with SK-MEL-28; 56.6 µM (inactive) in the assay with HL-60; > 100 µM (inactive) in the assay on MDA-MB-231; 21.9 µM (inactive) in the assay on UO-31; > 100 µM (inactive) in the assay with SW-620. Besides, the GI50 in the assay on SF-268 is > 100 µM (inactive); in the assay on LOX IMVI it was 93.5 µM (inactive); in the assay with MOLT-4, 39.7 µM (inactive); in the assay on RXF 393, > 100 µM (inactive).

On to `O=C1C(Cl)C(c2ccc([N+](=O)[O-])cc2)N1n1cnc2ccccc2c1=O` (stereo not given), for which the GI50 was 73.6 µM (inactive) in the assay on HCC 2998; 57 µM (inactive) in the assay on SK-MEL-5; above 100 µM in the assay with HCT-15; 42.3 µM (inactive) in the assay on SN12C; > 100 µM (inactive) with COLO 205; 24.1 µM (inactive) in the assay on SK-MEL-28. The GI50 in the assay on A549 is 30.7 µM (inactive); in the assay with UO-31, 71 µM (inactive); in the assay on SW-620, 97.7 µM (inactive); in the assay with SF-268, 28.6 µM (inactive); in the assay on OVCAR-8, 19.1 µM (inactive); with LOX IMVI, 87.1 µM (inactive). Besides, the GI50 with MOLT-4 is 49.1 µM (inactive); with RXF 393 it was 23.6 µM (inactive).

With `Cc1ccc(S(=O)(=O)N/N=C2\C=CC3(CC2)C(=O)N(I)c2ccccc23)cc1` (stereo not given), the GI50 is > 100 µM (inactive) in the assay on HCC 2998; > 100 µM (inactive) in the assay on SK-MEL-5; above 100 µM in the assay on HCT-15; > 100 µM (inactive) in the assay on SN12C; > 100 µM (inactive) with COLO 205; > 100 µM (inactive) in the assay with MDA-MB-435. The GI50 in the assay with SK-MEL-28 was > 100 µM (inactive); in the assay with A549, > 100 µM (inactive); with MDA-MB-231 it was 58.7 µM (inactive); in the assay with UO-31 it was > 100 µM (inactive); with SW-620, > 100 µM (inactive); in the assay with SF-268 it was 90.6 µM (inactive). The GI50 with OVCAR-8 was > 100 µM (inactive); in the assay with LOX IMVI, > 100 µM (inactive); in the assay on MOLT-4, 42.6 µM (inactive); in the assay on RXF 393, 15.1 µM (inactive).

Turning to `CN1CCN(C2=NCCO2)CC1`, the GI50 in the assay with HCC 2998 is > 100 µM (inactive); with SK-MEL-5, > 100 µM (inactive); with HCT-15, above 100 µM; in the assay on SN12C it was > 100 µM (inactive); in the assay with MCF7, > 100 µM (inactive); in the assay on COLO 205, > 100 µM (inactive). Also, the GI50 with MDA-MB-435, in the assay on SK-MEL-28, in the assay with A549, in the assay with HL-60, in the assay with MDA-MB-231 and in the assay on UO-31 was > 100 µM (inactive) throughout. The GI50 in the assay with SW-620, in the assay on SF-268, in the assay with OVCAR-8, in the assay on LOX IMVI, in the assay on MOLT-4 and in the assay on RXF 393 was > 100 µM (inactive) in each case.

With `CC(=O)/C(=C/N1C(=O)CC(=O)NC1=S)C(=O)Nc1ccccc1C`, the GI50 with HCC 2998 is 29.4 µM (inactive); in the assay with SK-MEL-5, 57.9 µM (inactive); in the assay on HCT-15, 42.5 µM; in the assay with SN12C it was > 100 µM (inactive); with MCF7, 60.4 µM (inactive); in the assay on COLO 205, > 100 µM (inactive). Also, the GI50 was 66.8 µM (inactive) in the assay on MDA-MB-435; 58.6 µM (inactive) in the assay with SK-MEL-28; 34.8 µM (inactive) with A549; 49 µM (inactive) with HL-60; > 100 µM (inactive) with MDA-MB-231; > 100 µM (inactive) with UO-31. Also, the GI50 with SW-620 was 32.8 µM (inactive); with SF-268, 35.1 µM (inactive); in the assay on OVCAR-8 it was > 100 µM (inactive); in the assay with LOX IMVI, > 100 µM (inactive); with MOLT-4 it was 28 µM (inactive); in the assay with RXF 393 it was 78.3 µM (inactive).

For the compound `CCCCc1c(N(C)C)c(OC(C)=O)c(-c2cn(C)c3ccccc23)oc1=O`, the GI50 in the assay on Hs-578T is 43 µM (inactive); in the assay on SK-MEL-5, 13.8 µM (inactive); in the assay with HCT-15, 19.4 µM; in the assay on SN12C, 24.5 µM (inactive); in the assay with MCF7, 13.1 µM (inactive); with COLO 205 it was 19.1 µM (inactive). Besides, the GI50 is 19.1 µM (inactive) in the assay with MDA-MB-435; 21.7 µM (inactive) in the assay with SK-MEL-28; 24.3 µM (inactive) in the assay on A549; 17.7 µM (inactive) in the assay on HL-60; 20.8 µM (inactive) in the assay on UO-31; 23.6 µM (inactive) in the assay with SW-620. The GI50 was 29.3 µM (inactive) with SF-268, 47.9 µM (inactive) in the assay on MOLT-4 and 41 µM (inactive) in the assay on RXF 393.

As for `CN(CCNC(=O)c1nn(C)c2c1Cc1ccccc1-2)CCNC(=O)c1nn(C)c2c1Cc1ccccc1-2`, the GI50 is 12.5 µM (inactive) in the assay on HCC 2998; 12.1 µM (inactive) in the assay with SK-MEL-5; 16.7 µM with HCT-15; 14.9 µM (inactive) in the assay on SN12C; 11.1 µM (inactive) in the assay on MCF7; 11.9 µM (inactive) in the assay on COLO 205. Besides, the GI50 is 15.2 µM (inactive) in the assay with MDA-MB-435; 16.1 µM (inactive) in the assay with SK-MEL-28; 15.8 µM (inactive) with A549; 12.9 µM (inactive) with HL-60; 19 µM (inactive) in the assay with MDA-MB-231; 10.4 µM (inactive) in the assay with UO-31. The GI50 was 18.7 µM (inactive) in the assay with SW-620; 14.7 µM (inactive) in the assay on SF-268; 17.5 µM (inactive) in the assay with OVCAR-8; 16.4 µM (inactive) with LOX IMVI; 12.4 µM (inactive) in the assay on MOLT-4; 14.8 µM (inactive) in the assay with RXF 393.

Consider `COC(=O)c1cc(C#N)[nH]c1-c1ccc(C)s1`, for which the GI50 is > 100 µM (inactive) with HCC 2998; 41.6 µM in the assay on HCT-15; 63.2 µM (inactive) in the assay with SN12C; 64.3 µM (inactive) in the assay with COLO 205; 91.4 µM (inactive) in the assay on MDA-MB-435; 56.4 µM (inactive) in the assay with SK-MEL-28. Further, the GI50 with A549 is 46.2 µM (inactive); in the assay with MDA-MB-231, 38.6 µM (inactive); in the assay on UO-31, 42.9 µM (inactive); in the assay with SW-620, 43.9 µM (inactive); in the assay on SF-268, 42.2 µM (inactive); in the assay with OVCAR-8, 59.3 µM (inactive). Also, the GI50 is > 100 µM (inactive) in the assay on MOLT-4 and 11.5 µM (inactive) in the assay with RXF 393.

The values above are taken from ChEMBL document CHEMBL1201862, “PubChem BioAssay data set” (2004).
